Several values for one entry are separate records, joined by “and”; a condition that tells them apart may be missing. Equal values may be shown once. Read-outs that look alike come from different tables or passages of the source.
Experiments:
[1] = test system: RPMI 8226; assay: cells; details: 1% or 10% FBS
Description: RPMI 8226 (CCL-155), HT-29 (HTB-38), and B16-F10 (CRL-6475) cells were purchased from ATCC. RPMI 8226 cells were maintained in RPMI 1640 media supplemented with 10% (v/v) FBS, 2 mM L-glutamine, 1 mM sodium pyruvate and Penicillin/Streptomycin at 100 IU/ml and 100 μg/ml, respectively. HT-29 cells were maintained in McCoys 5A supplemented with 10% (v/v) FBS, 2 mM L-glutamine, 1 mM sodium pyruvate, 1% (v/v) non-essential amino acids, 10 mM HEPES and Penicillin/Streptomycin at 100 IU/ml and 100 μg/ml, respectively. B16-F10 cells were maintained in DMEM supplemented with 10% (v/v) FBS, 2 mM L-glutamine, 10 mM HEPES and Penicillin/Streptomycin at 100 IU/ml and 100 μg/ml, respectively.
RPMI 8226 cells were seeded at 2×10^4 cells/well in 90 μl RPMI media containing 10% (v/v) FBS or 1% (v/v) FBS into 96 well black-walled, clear-bottom tissue culture plates. […] Formulae II-16, II-17 and Formula II-18 were serially diluted in media containing 1% or 10% FBS and added in triplicate to the test wells. […] The final concentration of Formula II-18 ranged from 2 μM to 630 pM.

[2] = molecular target: T1, trypsin-like activity of purified rabbit muscle 20S proteasome (Oryctolagus cuniculus, UniProt G1SWK8); assay: biochemical
T1 sequence (G1SWK8 1-271): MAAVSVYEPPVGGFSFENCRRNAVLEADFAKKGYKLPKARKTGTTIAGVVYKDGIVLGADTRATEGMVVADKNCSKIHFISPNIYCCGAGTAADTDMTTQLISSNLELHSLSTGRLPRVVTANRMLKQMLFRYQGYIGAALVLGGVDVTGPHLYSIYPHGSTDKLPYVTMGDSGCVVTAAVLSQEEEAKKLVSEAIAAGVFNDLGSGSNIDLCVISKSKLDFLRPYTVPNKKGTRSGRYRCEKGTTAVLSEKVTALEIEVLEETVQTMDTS

[3] = molecular target: T2, chymotrypsin-like activity of 20S proteasomes in PC-3 cells (Homo sapiens, UniProt P28074); assay: Chymotrypsin-like activity of 20S proteasomes in lysates of treated PC-3 cells; type: cell-based; details: 100 nM, 1 hr incubation
T2 construct: endogenous in cells; host or cells: PC-3 (ATCC CRL-1435)
Description: PC-3 (ATCC, CRL-1435), the human prostate cancer cell line, was cultured in F12K medium supplemented with 2 mM L-glutamine, 100 units/ml penicillin, 100 μg/ml streptomycin and 10% heat inactivated fetal bovine serum at 37° C., 5% CO2 and 95% humidified air. […] DMSO was used as the vehicle control at a final concentration of 0.1%. Following 1 hr incubation of PC-3 cells with the compounds, the cells were washed 3× with ice-cold 1× Dulbecco's Phosphate-Buffered Saline (DPBS, Mediatech, Herndon, Va.). […] Cell debris was pelleted by centrifugation at 14,000 rpm for 10 min, 4° C. and supernatants (=cell lysates) were transferred to a new tube. Protein concentration was determined by the BCA protein assay kit (Pierce Biotechnology, Rockford, Ill.). […] The released coumarin (AMC) was measured fluorometrically by using λex=390 nm and λem=460 nm. The assay was performed in a microtiter plate (Corning 3904) and followed kinetically with measurements every five minutes for 2 hr. The total amount of protein used for each assay was 20 μg. The final concentration of Suc-LLVY-AMC and DMSO was 20 μM and 0.2%, respectively. Results are presented as the percent inhibition of the 20S proteasome chymotrypsin-like activity relative to the DMSO control.

[4] = molecular target: T3, chymotrypsin-like activity of 20S proteasomes in RPMI 8226 cells (Homo sapiens, UniProt P28074); assay: Chymotrypsin-like activity of 20S proteasomes in lysates of treated RPMI 8226 cells; type: cell-based; details: RPMI-8226, read-out: % inhibition of the chymotrypsin-like activity of 20S proteasomes in RPMI 8226 cell lysates
T3 construct: added to 2.5×10^5/ml RMPI 8226 cells; endogenous in cells; host or cells: RPMI 8226 (ATCC CCL-155)
T3 sequence (P28074 60-263): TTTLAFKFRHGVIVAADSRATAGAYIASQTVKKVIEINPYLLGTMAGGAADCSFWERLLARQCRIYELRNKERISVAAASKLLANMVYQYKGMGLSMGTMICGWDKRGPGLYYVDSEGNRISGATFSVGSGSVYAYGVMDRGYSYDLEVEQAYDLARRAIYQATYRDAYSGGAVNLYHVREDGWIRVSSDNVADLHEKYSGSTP
Description: RPMI 8226 (ATCC, CCL-155), the human multiple myeloma cell line, was cultured in RPMI 1640 medium supplemented with 2 mM L-glutamine, 100 units/ml penicillin, 100 μg/ml streptomycin, 1 mM sodium pyruvate and 10% heat inactivated fetal bovine serum at 37° C., 5% CO2 and 95% humidified air. […] DMSO was used as the vehicle control at a final concentration of 0.1%. Following 1 hr incubation of RMPI 8226 cells with the compounds, the cells were pelleted by centrifugation at 2,000 rpm for 10 sec at room temperature and washed 3× with ice-cold 1× Dulbecco's Phosphate-Buffered Saline (DPBS, Mediatech, Herndon, Va.). DPBS washed cells were lysed on ice for 15 min in lysis buffer (20 mM HEPES, 0.5 mM EDTA, 0.05% Triton X-100, pH 7.3) supplemented with protease inhibitor cocktail (Roche Diagnostics, Indianapolis, Ind.). Cell debris was pelleted by centrifugation at 14,000 rpm for 10 min, 4° C. and supernatants (=cell lysates) were transferred to a new tube. Protein concentration was determined by the BCA protein assay kit (Pierce Biotechnology, Rockford, Ill.). […] The released coumarin (AMC) was measured fluorometrically by using λex=390 nm and λem=460 nm. The assay was performed in a microtiter plate (Corning 3904) and followed kinetically with measurements every five minutes for 2 hr. The total amount of protein used for each assay was 20 μg. The final concentration of Suc-LLVY-AMC and DMSO was 20 μM and 0.2%, respectively.

[5] = test system: U266; assay: Cell growth inhibition (resazurin), U266; details: 48 hours drug exposure
[6] = molecular target: T4, chymotrypsin-like activity of purified rabbit muscle 20S proteasome (Oryctolagus cuniculus, UniProt G1T4Q9); assay: In vitro inhibition of 20S proteasome chymotrypsin-like activity (suc-LLVY-AMC)
T4 sequence (G1T4Q9 1-263): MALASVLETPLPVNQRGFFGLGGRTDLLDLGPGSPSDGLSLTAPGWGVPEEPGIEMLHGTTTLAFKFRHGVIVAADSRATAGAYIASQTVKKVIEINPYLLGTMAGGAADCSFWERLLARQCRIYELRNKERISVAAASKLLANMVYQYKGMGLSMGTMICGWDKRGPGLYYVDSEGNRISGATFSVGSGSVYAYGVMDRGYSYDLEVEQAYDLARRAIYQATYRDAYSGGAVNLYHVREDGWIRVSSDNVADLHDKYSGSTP

[7] = molecular target: T5, caspase-like activity of purified rabbit muscle 20S proteasome (Oryctolagus cuniculus, UniProt A0A5F9DQW2); assay: In vitro inhibition of 20S proteasome caspase-like activity (Z-LLE-AMC); details: EC50 Caspase-like, Table 6, values in μM
T5 sequence (A0A5F9DQW2 1-212): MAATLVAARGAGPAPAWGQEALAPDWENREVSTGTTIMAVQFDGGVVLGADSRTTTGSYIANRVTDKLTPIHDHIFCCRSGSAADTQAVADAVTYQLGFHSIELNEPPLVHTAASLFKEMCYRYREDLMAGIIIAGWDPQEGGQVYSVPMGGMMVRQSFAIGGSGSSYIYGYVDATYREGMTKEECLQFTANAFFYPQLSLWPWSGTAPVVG

[8] = test system: U266
[9] = test system: RPMI 8226; assay: Cell growth inhibition (resazurin), RPMI 8226; details: Homo sapiens, RPMI-8226, 48 h, read-out: RPMI 8226 EC50, Table 2; 48 hours drug exposure; mean ± SD where n≥3
[10] = test system: HL-60/MX2; assay: Cell growth inhibition (resazurin), multidrug resistant HL-60/MX2; details: ratio of EC50 values (HL-60/MX2:HL-60)
Description: Concentrations ranging from 6.32 μM to 2 nM were tested for II-2 and II-4.
HL-60/MX2 is a multidrug resistant tumor cell line derived from the human promyelocytic leukemia cell line, HL-60 and expresses reduced topoisomerase II activity. […] Mitoxantrone, the topoisomerase II targeting agent was included as a control.

[11] = test system: MES-SA/Dx5; assay: Cell growth inhibition (resazurin), multidrug resistant MES-SA/Dx5; type: cell-based, human; details: for EC50: Table 3, 48 hours drug exposure

`CC[C@H]1C(=O)N[C@@]2([C@@H](O)[C@@H]3C=CCCC3)C(=O)O[C@@]12C` [Formula II-17] was tested, and the “cytotoxicity against RPMI 8226 in media containing 1% or 10% FBS, in words” value [1] was “cytotoxic”, the EC50 [2] was 0.573 µM and 0.602 µM and the “% inhibition of the chymotrypsin-like activity of 20S proteasomes in PC-3 cell lysates” value [3] was 26%. For the same molecule, the inhibition at 0.001 µM [4] was 6 ± 6%, the inhibition at 0.005 µM [4] was 10 ± 5% and the inhibition at 0.01 µM [4] was 6 ± 6%. It also gave an inhibition at 0.05 µM [4] of 26 ± 5%, an inhibition at 0.1 µM [4] of 30 ± 4% and an inhibition at 0.5 µM [4] of 39 ± 3%. It also gave an inhibition at 1 µM [4] of 46 ± 4% and an inhibition at 10 µM [4] of 65 ± 5%.

For `C[C@@]12OC(=O)[C@]1([C@@H](O)[C@H]1CCC[C@H](Cl)[C@H]1O)NC(=O)[C@@H]2CCCl` [Formula IV-3C], the EC50 ([5]; Homo sapiens, U-266, 48 h, read-out: U266 EC50, Table 2) was 7.76 µM, the EC50 ([5]; read-out: U266 EC50, Table 2) was 8.29 µM and the EC50 ([6]; EC50 Chymotrypsin-like, Table 6, values in μM) was 4.9 µM and 10.6 µM. The EC50 ([6]; EC50 values, chymotrypsin-like activity, range or bound stated in text, summary of Table 6) was 1.4 to 10.6 µM, the EC50 [2] was > 20 µM and the EC50 [7] was > 20 µM. For the same molecule, the “cytotoxicity against U266, in words” value [8] was “cytotoxic” and the EC50 [9] was > 20 µM.

Molecule `O=C1c2c(O)ccc(O)c2C(=O)c2c(NCCNCCO)ccc(NCCNCCO)c21` [Mitoxantrone, reference compound] has a Fold change [10] of ~30 fold.

For `CC(C)[C@H](O)[C@@]12NC(=O)[C@H](C)[C@@H]1OC2=O` [Omuralide, reference compound], the “% inhibition of the chymotrypsin-like activity of 20S proteasomes in PC-3 cell lysates” value [3] was 36%, the inhibition at 0.1 µM ([3]; PC-3, read-out: % inhibition of the chymotrypsin-like activity of 20S proteasomes in PC-3 cell lysates) was 36% and the inhibition at 0.001 µM ([4]; 1 nM, 1 hr incubation, mean ± SD, n = 3) was 5 ± 9%. It also gave an inhibition at 0.005 µM ([4]; 5 nM, 1 hr incubation, mean ± SD, n = 3) of 8 ± 9%, an inhibition at 0.05 µM ([4]; 50 nM, 1 hr incubation, mean ± SD, n = 3) of 17 ± 11% and an inhibition at 0.1 µM ([4]; 100 nM, 1 hr incubation, mean ± SD, n = 3) of 32 ± 8%. For the same molecule, the inhibition at 0.5 µM ([4]; 500 nM, 1 hr incubation, mean ± SD, n = 3) was 68 ± 11%.

Molecule `CC(=O)O[C@H]1C(=O)[C@@]2(C)[C@H]([C@H](OC(=O)c3ccccc3)[C@]3(O)C[C@H](OC(=O)[C@H](O)[C@@H](NC(=O)c4ccccc4)c4ccccc4)C(C)=C1C3(C)C)[C@]1(OC(C)=O)CO[C@@H]1C[C@@H]2O` [Paclitaxel] has an EC50 ([11]; Homo sapiens, MES-SA/Dx5, 48 h) of 2.93 µM, an EC50 [11] of 5.21 µM and a Fold change ([11]; ratio of EC50 values (MES-SA/Dx5:MES-SA)) of ~800 fold.

From US7544814B2, “[3.2.0] Heterocyclic compounds and methods of using the same” (Nereus Pharmaceuticals, Inc., priority 2004, dated 2009)
